Results from patent US20110318266A1, “PHTHALIMIDE DERIVATIVE METABOTROPIC GLUTAMATE R4 LIGANDS” (priority 2008, published 2011).

Key:
[1] = biological target: T1, mGluR4 (Homo sapiens, UniProt Q14833); test: mGluR4 Binding Assay; set-up: expressed in transfected cells; host or cells: CHO cells; settings: membranes from CHO cells expressing human mGluR4; 20 uM L-AP4; 7 nM radiotracer [3H]-N-(4-{[(2-Chlorophenyl)amino]sulfonyl}phenyl)pyridine-2-carboxamide
Description: Membranes were prepared from CHO cells expressing the human mGluR4 receptor. Cells were harvested using trypsin and then washed in assay buffer, assay buffer contains 50 mM HEPES, 1 mM EDTA and protease inhibitors (Boehringer Mannheim catalog #1 836 170). Harvested cells were pelleted by centrifugation and stored at −80° C. for a minimum of 12 hours. Cells were resuspended in assay buffer and lysed by a polytron, a low speed spin, 2000×g for 10 min, was used to recover unbroken cells for additional treatment using the polytron. The cleared supernatant from the low speed spins was subjected to a high speed spin, 96,000×g for 1 hour. The membrane pellet from the high speed spin was resuspended in assay buffer and used in the mGluR4 binding assay.
The binding assay follows a standard filtration binding paradigm. The binding buffer consists of 20 mM HEPES, 100 mM NaCl and 3 mM MgCl2, the pH of the buffer is 7.4. The assay is performed in a 96-well format with each well containing test compound, 25 to 50 ug of membrane protein, 20 uM L-AP4, and 7 nM radiotracer, [^3H]—N-(4-{[(2-Chlorophenyl)amino]sulfonyl}phenyl)pyridine-2-carboxamide, which is disclosed in commonly owned U.S. patent application docket no.
The binding reaction is incubated at room temperature for 1 hour, and then is passed through GF/B filter that was presoaked with 0.5% PEI. The cell membranes are collected on the filter and then washed five times with ˜5 ml ice cold binding buffer that contains 0.01% BSA. The washed filter plate is dried for 30 minutes at 37° C., scintillation fluid is added, and the amount of filter bound radioactivity is determined using a TopCount instrument. […] To determine the level of non-specific binding for the radiotracer [^3H]—N-(4-{[(2-Chlorophenyl)amino]sulfonyl}phenyl)pyridine-2-carboxamide, 5 uM of unlabeled [^3H]—N-(4-{[(2-Chlorophenyl)amino]sulfonyl}phenyl)pyridine-2-carboxamide is added to determine the level of non-specific binding. […]

[2] = biological target: T1, mGluR4; test: Fluorescent Plate Imaging Reader (FLIPR) Assay for mGluR4 Potentiators; type: cell-based; set-up: expressed in transfected cells; settings: for Emax: maximal activity relative to response with saturating concentration (10 uM) of agonist L-AP4, read-out: mGlu4 FLIPR % Max Efficacy; for EC50: potentiator response with EC10 concentration of L-AP4 (30 nM), inflection point of the curve, read-out: mGluR4 FLIPR Potency
Description: Cells are grown in Corning T162 cm^2 flasks in DMEM growth media at 37° C. and 5% CO2. Growth media contains: Gibco DMEM supplemented with 10% defined FBS, 1% GlutaMax −1, 1% sodium pyruvate, 1% NEAA, 1% Pen/Strep, 250 ug/ml zeocin, 25 mM HEPES, 0.1% 2-Mercaptoethanol, 600 ug/ml Hygromycin B, 7.5 ug/ml blasticidin, and 5 ug/ml puromycin.
The day prior to the experiment the cells were plated in growth medium (minus glutamine) at 50K cells/well into Becton-Dickinson 384-well PDL-coated plates using a Labsystems Multidrop (0.1 ml/well). The cells are grown overnight at 37° C. and 6% CO2.
The following day, the cells are washed with Assay Buffer at 37° C. using a Skatron EMBLA cell washer (3×100 μl, aspiration 3 mm from bottom will leave 30 μl of buffer in each well). Assay buffer is Hanks balanced salt solution with 20 mM HEPES, 2.5 mM probenecid and 0.1% BSA.
Fluorescent dye, 30 μl of the diluted Fluo-4-AM, is added to each well of the plate. The Fluo-4-AM solution is added to achieve a final concentration in the assay of 2 uM Fluo-4-AM, 0.02% pluronic acid and 1% FBS. The assay plates are placed back into the 6% CO2 incubator and incubated at 37° C. for 60 min. The 384-well plates are washed with Assay Buffer at 37° C. on using a cell washer (3×100 μl, aspiration 3 mm from bottom, will leave 30 μl of buffer in each well). The experimental run is initiated and after 30 sec a dose of test compound is applied. The fluorescent response elicited by test compound is monitored for 5 min, any positive response detected at this stage is attributed to agonist properties of the test compound. At this point an EC10 concentration of the mGluR4 agonist L-AP4 ((S)-2-amino-4-phosphonobutanoate) (final concentration 30 nM) is added and the fluorescent response is monitored for an additional 3 minutes, any positive response detected at this stage is attributed to potentiator properties of the test compound.
Controls for the assay include a no compound control, a positive control which is a saturating concentration, 10 uM, of the agonist L-AP4. A 10 point dose response, with either 2-fold or 3-fold dilution steps, is performed and curve fitting algorithms, suitable for a sigmoidal dose response relationship, are used to fit the data. The inflection point of the curve provides a measure of compound potency.
A comparison of the maximal level of activity achieved for a test compound, relative to the response achieved with a saturating concentration of the agonist L-AP4 provides a measure of compound efficacy.

T1 sequence (Q14833 33-912): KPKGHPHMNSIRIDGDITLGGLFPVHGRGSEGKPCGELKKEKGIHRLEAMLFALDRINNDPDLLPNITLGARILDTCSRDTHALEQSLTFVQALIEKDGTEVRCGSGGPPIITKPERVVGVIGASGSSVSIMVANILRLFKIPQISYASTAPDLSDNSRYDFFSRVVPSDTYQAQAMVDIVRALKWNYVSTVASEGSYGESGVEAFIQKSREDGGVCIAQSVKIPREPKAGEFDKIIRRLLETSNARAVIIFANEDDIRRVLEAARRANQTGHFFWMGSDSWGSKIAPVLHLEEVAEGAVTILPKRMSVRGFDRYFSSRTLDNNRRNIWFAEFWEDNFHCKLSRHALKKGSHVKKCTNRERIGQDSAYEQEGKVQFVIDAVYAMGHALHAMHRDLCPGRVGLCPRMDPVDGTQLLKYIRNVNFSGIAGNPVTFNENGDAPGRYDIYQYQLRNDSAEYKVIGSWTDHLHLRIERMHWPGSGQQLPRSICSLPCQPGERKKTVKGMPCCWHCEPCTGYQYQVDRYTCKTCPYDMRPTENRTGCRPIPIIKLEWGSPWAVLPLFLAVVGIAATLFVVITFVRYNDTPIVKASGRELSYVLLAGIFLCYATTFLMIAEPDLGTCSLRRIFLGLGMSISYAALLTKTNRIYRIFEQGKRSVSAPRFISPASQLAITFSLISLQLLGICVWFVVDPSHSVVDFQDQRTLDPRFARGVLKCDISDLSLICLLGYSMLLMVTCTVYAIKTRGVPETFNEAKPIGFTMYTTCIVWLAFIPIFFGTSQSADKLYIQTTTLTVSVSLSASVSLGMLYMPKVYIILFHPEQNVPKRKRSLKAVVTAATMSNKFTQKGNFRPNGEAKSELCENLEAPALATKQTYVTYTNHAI

O=C(Nc1ccc(N2C(=O)c3ccccc3C2=O)cc1)c1ccccn1 [Example 1, N-[4-(1,3-dioxo-1,3-dihydro-2H-isoindol-2-yl)phenyl]pyridine-2-carboxamide]
IC50 [1]: 712 nM
Emax [2]: 52%
EC50 [2]: 341 nM

O=C(Nc1ccc(N2C(=O)c3cccc(F)c3C2=O)c(Cl)c1)c1ccccn1 [Example 10, N-[3-chloro-4-(4-fluoro-1,3-dioxo-1,3-dihydro-2H-isoindol-2-yl)phenyl]pyridine-2-carboxamide]
Emax [2]: 110%
EC50 [2]: 50.4 nM

Cc1cccc2c1C(=O)N(c1ccc(NC(=O)c3ccccn3)cc1Br)C2=O [Example 29, N-[3-bromo-4-(4-methyl-1,3-dioxo-1,3-dihydro-2H-isoindol-2-yl)phenyl]pyridine-2-carboxamide]
IC50 [1]: 12 nM
Emax [2]: 109%
EC50 [2]: 101 nM

Cc1cc(NC(=O)c2ccccn2)ccc1N1C(=O)c2ccccc2C1=O [Example 3, N-[4-(1,3-dioxo-1,3-dihydro-2H-isoindol-2-yl)-3-methylphenyl]pyridine-2-carboxamide]
IC50 [1]: 1720 nM
Emax [2]: 104%
EC50 [2]: 390 nM

Cc1cccc2c1C(=O)N(c1ccc(NC(=O)c3ccccn3)cc1Cl)C2=O [Example 13, N-[3-chloro-4-(4-methyl-1,3-dioxo-1,3-dihydro-2H-isoindol-2-yl)phenyl]pyridine-2-carboxamide]
Emax [2]: 125%
EC50 [2]: 43.6 nM
